Experimental data reported in ChEMBL document CHEMBL1125766, “Synthesis and antiviral activity of certain guanosine analogues in the thiazolo[4,5-d]pyrimidine ring system” (1991).
“And” between values parts separate entries of the source, which are not always exact repeats. Equal values may be shown once.

Assays:
Format in all cases: functional
Mus musculus [1] = test: Compound was tested for mean survival time through 21 days after administration of 200 mg/kg, 24 and 18 hr prior to virus inoculation ( forest virus) in mice
Mus musculus [2] = test: Compound was tested for its activity against forest virus infection in mice, activity was determined by measuring the number of survived mice after 200 mg/kg administration.
Mus musculus [3] = test: Compound was tested for its activity against forest virus infection in mice, activity was determined by measuring the number of survived mice after 100 mg/kg administration.
Mus musculus [4] = test: Compound was tested for mean survival time through 21 days after administration of 100 mg/kg, 24 and 18 hr prior to virus inoculation ( forest virus) in mice
Mus musculus [5] = test: Compound was tested for mean survival time through 21 days after administration of 25 mg/kg, 24 and 18 hr prior to virus inoculation ( forest virus) in mice
Mus musculus [6] = test: Compound was tested for its activity against forest virus infection in mice, activity was determined by measuring the number of survived mice after 25 mg/kg administration
Mus musculus [7] = test: Compound was tested for its activity against forest virus infection in mice, activity was determined by measuring the number of survived mice after 50 mg/kg administration
Mus musculus [8] = test: Compound was tested for its activity against forest virus infection in mice, activity was determined by measuring the number of survived mice after 100 mg/kg administration
Mus musculus [9] = test: Compound was tested for mean survival time through 21 days after intraperitoneal administration of 150 mg/kg, 24 hr prior to virus inoculation ( forest virus) in mice
Mus musculus [10] = test: Compound was tested for mean survival time through 21 days after intravenous administration of 150 mg/kg, 24 hr prior to virus inoculation ( forest virus) in mice
Mus musculus [11] = test: Compound was tested for mean survival time through 21 days after oral administration of 150 mg/kg, 24 hr prior to virus inoculation ( forest virus) in mice
Mus musculus [12] = test: Compound was tested for mean survival time through 21 days after subcutaneous administration of 150 mg/kg, 24 hr prior to virus inoculation ( forest virus) in mice
Mus musculus [13] = test: Compound was tested for its activity against forest virus infection in mice, activity was determined by measuring the number of survived mice after 150 mg/kg oral administration.
Mus musculus [14] = test: Compound was tested for its activity against forest virus infection in mice, activity was determined by measuring the number of survived mice after 150 mg/kg subcutaneous administration.
Mus musculus [15] = test: Compound was tested for its activity against intraperitoneal administration.
Mus musculus [16] = test: Compound was tested for its activity against forest virus infection in mice, activity was determined by measuring the number of survived mice after 150 mg/kg intravenous administration.

Row | SMILES | Mean survival time (Mus musculus [1]) [days] | Survivors (Mus musculus [2]) [%] | Survivors (Mus musculus [3]) [%] | Mean survival time (Mus musculus [4]) [days] | Mean survival time (Mus musculus [5]) | Survivors (Mus musculus [6]) [%] | Survivors (Mus musculus [7]) [%] | Survivors (Mus musculus [8]) [%] | Mean survival time (Mus musculus [9]) [days] | Mean survival time (Mus musculus [10]) [days] | Mean survival time (Mus musculus [11]) [days] | Mean survival time (Mus musculus [12]) [days] | Survivors (Mus musculus [13]) [%] | Survivors (Mus musculus [14]) [%] | Survivors (Mus musculus [15]) [%] | Survivors (Mus musculus [16]) [%] | Mean survival time (Mus musculus [4]; 100 mg/kg)
1 | Nc1nc(O)c2sc(=O)n(C(CO)OC(CO)CO)c2n1 (stereo not given) | 7.8 | 0 | 8 | 7 | – | – | – | – | – | – | – | – | – | – | – | – | –
2 | Nc1nc(O)c2sc(=O)n([C@@H]3O[C@@H]4COP(=O)(O)O[C@H]4[C@H]3O)c2n1 | – | – | – | 7 | 7.1 days and 7.3 days | 42 | 17 | 50 | – | – | – | – | – | – | – | – | –
3 | CC(=O)OC[C@H]1O[C@@H](n2c(=O)sc3c(O)nc(N)nc32)[C@H](OC(C)=O)[C@@H]1OC(C)=O | – | – | – | – | – | – | – | – | 8 | 7.9 | 6.6 | 7 | 17 | 82 | 92 | 42 | –
4 | Nc1nc(O)c2sc(=O)n([C@H]3C[C@H](O)[C@@H](CO)O3)c2n1 | 7 | 83 | 50 | 6.8 | – | – | – | – | – | – | – | – | – | – | – | – | –
5 | Nc1nc(O)c2sc(=O)n(C3O[C@H](COP(=O)(O)O)[C@@H](O)[C@H]3O)c2n1 (stereo not given in full) | – | – | – | 6.5 | 8.1 days and 7.1 days | 25 | 50 | 67 | – | – | – | – | – | – | – | – | –
6 | Nc1nc(O)c2sc(=O)n(C3O[C@H](COS(N)(=O)=O)[C@@H](O)[C@H]3O)c2n1 (stereo not given in full) | 8.2 | 8 | 17 | 8 | – | – | – | – | – | – | – | – | – | – | – | – | –
7 | C[C@H]1OC(n2c(=O)sc3c(O)nc(N)nc32)[C@H](O)[C@@H]1O (stereo not given in full) | 8.4 | 0 | 8 | 8 | – | – | – | – | – | – | – | – | – | – | – | – | –
8 | Nc1nc(=O)c2sc(=O)n([C@@H]3O[C@H](CO)[C@@H](O)[C@H]3O)c2[nH]1 [ISATORIBINE] | >21 | 100 | 92 | – | 8.8 days and 7.2 days | 25 | 25 | 50 | 7 | 8 | 7.1 | >21 | 25 | 100 | 91 | 73 | 6.5 days and 10 days
